Assay [1] concerns the target human glucagon receptor (hGCGR) (Homo sapiens, UniProt P47871). Put plainly: cAMP production (HTRF) in CHO cells expressing hGCGR. The assay is classed as cell-based. Set-up: expressed in transfected cells. Particulars: cAMP in CHO hGCGR cells, geometric mean, read-out: hGluc-R EC50. In outline:
(§1)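 Read-out: HTRF cAMP (anti-cAMP cryptate donor, cAMP-d2 acceptor in conjugate/lysis buffer), converted to % Delta F and fitted by 4-parameter logistic for EC50. Cell densities were 1×10^5 cells/mL (hGLP-1R) or 2×10^5 cells/mL (hGCGR). Stimulation lasted 30 min at room temperature.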
For orientation: cAMP levels reflect the balance of adenylyl cyclase and phosphodiesterase activity.

Assay [2] concerns the target human GLP-1 receptor (hGLP-1R) (Homo sapiens, UniProt P43220). Put plainly: cAMP production (HTRF) in CHO cells expressing hGLP-1R. Set-up: expressed in transfected cells. Particulars: for EC50: cAMP in CHO hGLP-1R cells, geometric mean, read-out: hGLP-1R EC50; for % Relative Potency Ratio: % GLP-1R activity relative to GLP-1 / % GlucR activity relative to glucagon. The assay is classed as cell-based. An outline of the steps: as §1

[3] abbreviates: Table 6, peptides modified at position 17.
The mark [4] stands for this setting: Table 7, peptides modified at position 20.

Where two headings read alike, the source gives them in different places. Starred links: 1 amine or outer side, 2 acyl side, 3 side chain; linkers in the order of their positions; H or OH if unused. Non-standard residues stand in square brackets, D forms with d. Residues, ends and D or L forms follow the SMILES beside them. Groups on a side chain read outwards from the residue. *: point of attachment. C18 diacid = O=C(O)CCCCCCCCCCCCCCCCC(=O)*; γGlu = O=C(O)[C@H](CCC(=O)[*:2])N[*:1]; αMeF = C[C@](N)(Cc1ccccc1)C(=O)O; PEG2 = NCCOCCOCCC(=O)O; AEEA = NCCOCCOCC(=O)O; Aib = CC(C)(N)C(=O)O

Chain of human GLP-1 receptor (hGLP-1R) (P43220 24-463): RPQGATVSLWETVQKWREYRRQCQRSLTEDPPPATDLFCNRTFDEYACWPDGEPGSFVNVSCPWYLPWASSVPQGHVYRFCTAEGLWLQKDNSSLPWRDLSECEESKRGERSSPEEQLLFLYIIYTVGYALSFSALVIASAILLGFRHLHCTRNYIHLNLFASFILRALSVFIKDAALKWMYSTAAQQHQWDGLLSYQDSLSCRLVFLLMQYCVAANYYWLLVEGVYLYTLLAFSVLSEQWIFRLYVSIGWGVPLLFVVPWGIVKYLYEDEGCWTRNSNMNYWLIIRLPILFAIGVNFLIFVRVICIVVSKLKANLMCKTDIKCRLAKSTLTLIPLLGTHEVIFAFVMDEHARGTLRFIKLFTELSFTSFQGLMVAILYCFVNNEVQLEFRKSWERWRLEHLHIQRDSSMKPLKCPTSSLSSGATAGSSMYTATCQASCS
Chain of human glucagon receptor (hGCGR) (P47871 26-477): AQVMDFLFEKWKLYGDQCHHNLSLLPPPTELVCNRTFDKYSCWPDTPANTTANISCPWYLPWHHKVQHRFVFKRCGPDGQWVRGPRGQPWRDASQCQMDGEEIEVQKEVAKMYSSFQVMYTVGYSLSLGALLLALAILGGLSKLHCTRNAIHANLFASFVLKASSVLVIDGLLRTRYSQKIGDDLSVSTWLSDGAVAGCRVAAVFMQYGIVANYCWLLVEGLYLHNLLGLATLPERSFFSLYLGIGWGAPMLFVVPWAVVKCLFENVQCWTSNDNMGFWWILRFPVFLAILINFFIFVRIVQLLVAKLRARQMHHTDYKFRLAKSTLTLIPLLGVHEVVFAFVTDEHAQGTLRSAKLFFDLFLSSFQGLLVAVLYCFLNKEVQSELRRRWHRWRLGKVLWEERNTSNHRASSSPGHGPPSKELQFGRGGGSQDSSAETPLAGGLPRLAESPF

For orientation: EC50 means the midpoint of the concentration-response curve. As to `CC(C)C[C@H](NC(=O)[C@H](CC(C)C)NC(=O)[C@H](Cc1c[nH]c2ccccc12)NC(=O)[C@H](CCCNC(=N)N)NC(=O)[C@@H](NC(=O)[C@H](Cc1ccccc1)NC(=O)[C@H](CC(=O)O)NC(=O)[C@H](CCC(N)=O)NC(=O)[C@H](C)NC(=O)[C@H](CCCNC(=N)N)NC(=O)[C@H](CCCCNC(=O)COCCOCCNC(=O)COCCOCCNC(=O)CC[C@H](NC(=O)CCCCCCCCCCCCCCCCC(=O)O)C(=O)O)NC(=O)[C@@H](NC(=O)[C@H](CC(=O)O)NC(=O)[C@H](CC(C)C)NC(=O)[C@](C)(Cc1ccccc1)NC(=O)[C@H](CCCCN)NC(=O)[C@H](CO)NC(=O)[C@@H](NC(=O)[C@H](CC(=O)O)NC(=O)[C@H](CO)NC(=O)[C@@H](NC(=O)[C@H](Cc1ccccc1)NC(=O)[C@@H](NC(=O)CNC(=O)[C@H](CCC(N)=O)NC(=O)C(C)(C)NC(=O)[C@@H](N)Cc1c[nH]cn1)[C@@H](C)O)[C@@H](C)O)C(C)C)[C@@H](C)O)C(C)C)C(=O)N[C@@H](CCC(=O)O)C(=O)N[C@@H](C)C(=O)NCC(=O)O` [Peptide 186] (H-H[Aib]QGTFTSDVSK[αMeF]LDTK([AEEA-AEEA-γGlu-C18 diacid])RAQDFVRWLLEAG-OH; N-terminus assumed), the concentration giving a half-maximal response (EC50) was 101 pM in assay [1] (setting [3]) and 44.9 pM in assay [2] (setting [3]). For the same compound, the “% Relative Potency Ratio” value in assay [2] (Table 6) came to 4.4.
Regarding `CC[C@H](C)[C@H](NC(=O)C(C)(C)NC(=O)[C@H](CCC(N)=O)NC(=O)[C@@H](NC(=O)[C@](C)(Cc1ccccc1)NC(=O)[C@H](CC(=O)O)NC(=O)[C@H](CCCCNC(=O)COCCOCCNC(=O)CC[C@H](NC(=O)CC[C@H](NC(=O)CCCCCCCCCCCCCCCCC(=O)O)C(=O)O)C(=O)O)NC(=O)[C@H](C)NC(=O)[C@H](C)NC(=O)[C@H](CCCNC(=N)N)NC(=O)[C@H](CO)NC(=O)[C@H](CC(=O)O)NC(=O)[C@H](CC(C)C)NC(=O)[C@](C)(Cc1ccccc1)NC(=O)[C@H](CCCCN)NC(=O)[C@H](CO)NC(=O)[C@@H](NC(=O)[C@H](CC(=O)O)NC(=O)[C@H](CO)NC(=O)[C@@H](NC(=O)[C@](C)(Cc1ccccc1)NC(=O)[C@H](CO)NC(=O)CNC(=O)[C@H](Cc1c[nH]cn1)NC(=O)C(C)(C)NC(=O)[C@@H](N)Cc1c[nH]cn1)[C@@H](C)O)C(C)C)C(C)C)C(=O)N[C@@H](C)C(=O)N[C@@H](CC(N)=O)C(=O)N[C@H](C(N)=O)[C@@H](C)O` [Peptide 274] (H-H[Aib]HGS[αMeF]TSDVSK[αMeF]LDSRAAK([AEEA-γGlu-γGlu-C18 diacid])D[αMeF]VQ[Aib]IANT-NH2), the results for the EC50 in assay [1] (setting [4]) and in assay [2] (setting [4]) were 31.3 pM and 27.1 pM, respectively. The “% Relative Potency Ratio” value in assay [2] (Table 7) is 2.3.
With `CC(C)C[C@H](NC(=O)[C@H](Cc1c[nH]c2ccccc12)NC(=O)[C@H](CCC(N)=O)NC(=O)[C@@H](NC(=O)[C@H](Cc1ccccc1)NC(=O)[C@H](CC(=O)O)NC(=O)[C@H](CCCCNC(=O)CC[C@H](NC(=O)CCCCCCCCCCCCCCCCC(=O)O)C(=O)O)NC(=O)[C@H](C)NC(=O)[C@H](CCCNC(=N)N)NC(=O)[C@H](CCCNC(=N)N)NC(=O)[C@H](CO)NC(=O)[C@H](CC(=O)O)NC(=O)[C@H](CC(C)C)NC(=O)[C@](C)(Cc1ccccc1)NC(=O)[C@H](CCCCN)NC(=O)[C@H](CO)NC(=O)[C@H](Cc1ccc(O)cc1)NC(=O)[C@H](CC(=O)O)NC(=O)[C@H](CO)NC(=O)[C@@H](NC(=O)[C@H](Cc1ccccc1)NC(=O)[C@@H](NC(=O)CNC(=O)[C@H](CCC(N)=O)NC(=O)C(C)(C)NC(=O)[C@@H](N)Cc1c[nH]cn1)[C@@H](C)O)[C@@H](C)O)C(C)C)C(=O)N[C@@H](C)C(=O)NC(C)(C)C(=O)N[C@@H](CCC(=O)O)C(=O)O` [Peptide 334], the concentration for a half-maximal effect (EC50) turned out to be 462 pM in assay [1] (setting [4]) and 250 pM in assay [2] (setting [4]). Further, the “% Relative Potency Ratio” value in assay [2] (Table 7) was 3.7.
Consider `CC[C@H](C)[C@H](NC(=O)C(C)(C)NC(=O)[C@H](CCC(N)=O)NC(=O)[C@@H](NC(=O)[C@](C)(Cc1ccccc1)NC(=O)[C@H](CC(=O)O)NC(=O)[C@H](CCCCNC(=O)CCOCCOCCNC(=O)CCOCCOCCNC(=O)CC[C@H](NC(=O)CC[C@H](NC(=O)CCCCCCCCCCCCCCCCC(=O)O)C(=O)O)C(=O)O)NC(=O)[C@H](C)NC(=O)[C@H](C)NC(=O)[C@H](CCCNC(=N)N)NC(=O)[C@H](CO)NC(=O)[C@H](CC(=O)O)NC(=O)[C@H](CC(C)C)NC(=O)[C@](C)(Cc1ccccc1)NC(=O)[C@H](CCCCN)NC(=O)[C@H](CO)NC(=O)[C@@H](NC(=O)[C@H](CC(=O)O)NC(=O)[C@H](CO)NC(=O)[C@@H](NC(=O)[C@](C)(Cc1ccccc1)NC(=O)[C@H](CO)NC(=O)CNC(=O)[C@H](Cc1c[nH]cn1)NC(=O)C(C)(C)NC(=O)[C@@H](N)Cc1c[nH]cn1)[C@@H](C)O)C(C)C)C(C)C)C(=O)N[C@@H](C)C(=O)N[C@@H](CC(N)=O)C(=O)N[C@H](C(N)=O)[C@@H](C)O` [Peptide 258] (H-H[Aib]HGS[αMeF]TSDVSK[αMeF]LDSRAAK([PEG2-PEG2-γGlu-γGlu-C18 diacid])D[αMeF]VQ[Aib]IANT-NH2; N-terminus assumed), for which the values for the concentration giving a half-maximal response (EC50) in assay [1] (setting [4]) and in assay [2] (setting [4]) were 93.1 pM and 34 pM, respectively. The “% Relative Potency Ratio” value in assay [2] (Table 7) is 5.4.
As to `CC(C)C[C@H](NC(=O)[C@H](Cc1c[nH]c2ccccc12)NC(=O)[C@H](CCCNC(=N)N)NC(=O)[C@@H](NC(=O)[C@H](Cc1ccccc1)NC(=O)[C@H](CC(=O)O)NC(=O)[C@H](CCC(N)=O)NC(=O)[C@H](C)NC(=O)[C@H](CCCNC(=N)N)NC(=O)[C@H](CCCCNC(=O)COCCOCCNC(=O)COCCOCCNC(=O)CC[C@H](NC(=O)CCCCCCCCCCCCCCCCC(=O)O)C(=O)O)NC(=O)[C@@H](NC(=O)[C@H](CC(=O)O)NC(=O)[C@H](CC(C)C)NC(=O)[C@](C)(Cc1ccccc1)NC(=O)[C@H](CCCCN)NC(=O)[C@H](CO)NC(=O)[C@@H](NC(=O)[C@H](CC(=O)O)NC(=O)[C@H](CO)NC(=O)[C@@H](NC(=O)[C@H](Cc1ccccc1)NC(=O)[C@@H](NC(=O)CNC(=O)[C@H](CCC(N)=O)NC(=O)C(C)(C)NC(=O)[C@@H](N)Cc1c[nH]cn1)[C@@H](C)O)[C@@H](C)O)C(C)C)[C@@H](C)O)C(C)C)C(=O)N[C@@H](CC(C)C)C(=O)N[C@@H](CCCNC(=N)N)C(=O)NC(C)(C)C(=O)N[C@@H](CCCCN)C(N)=O` [Peptide 495] (H-H[Aib]QGTFTSDVSK[αMeF]LDTK([AEEA-AEEA-γGlu-C18 diacid])RAQDFVRWLLR[Aib]K-NH2; N-terminus assumed), the values for the concentration for a half-maximal effect (EC50) in assay [1] (setting [3]) and in assay [2] (setting [3]) were 380 pM and 23.2 pM, respectively. In assay [2] (Table 6), the “% Relative Potency Ratio” value stood at 32.4.
In the same order, the values of `CC(C)C[C@H](NC(=O)[C@H](Cc1c[nH]c2ccccc12)NC(=O)[C@H](CCC(N)=O)NC(=O)[C@@H](NC(=O)[C@H](Cc1ccccc1)NC(=O)[C@H](CC(=O)O)NC(=O)[C@H](CCC(N)=O)NC(=O)[C@H](C)NC(=O)[C@H](CCCNC(=N)N)NC(=O)[C@H](CCCCNC(=O)COCCOCCNC(=O)COCCOCCNC(=O)CC[C@H](NC(=O)CCCCCCCCCCCCCCCCC(=O)O)C(=O)O)NC(=O)[C@H](CO)NC(=O)[C@H](CC(=O)O)NC(=O)[C@H](CC(C)C)NC(=O)[C@](C)(Cc1ccccc1)NC(=O)[C@H](CCCCN)NC(=O)[C@H](CO)NC(=O)[C@@H](NC(=O)[C@H](CC(=O)O)NC(=O)[C@H](CO)NC(=O)[C@@H](NC(=O)[C@H](Cc1ccccc1)NC(=O)[C@@H](NC(=O)CNC(=O)[C@H](CCC(N)=O)NC(=O)C(C)(C)NC(=O)[C@@H](N)Cc1c[nH]cn1)[C@@H](C)O)[C@@H](C)O)C(C)C)C(C)C)C(=O)N[C@@H](CC(C)C)C(=O)NC(C)(C)C(=O)N[C@H](C(=O)N[C@@H](CCC(=O)O)C(=O)O)[C@@H](C)O` [Peptide 150] (H-H[Aib]QGTFTSDVSK[αMeF]LDSK([AEEA-AEEA-γGlu-C18 diacid])RAQDFVQWLL[Aib]TE-OH; N-terminus assumed) are 355 pM, 166 pM and 4.2.
Take `CC[C@H](C)[C@H](NC(=O)C(C)(C)NC(=O)[C@H](C)NC(=O)[C@@H](NC(=O)[C@](C)(Cc1ccccc1)NC(=O)[C@H](CC(=O)O)NC(=O)[C@H](CCCNC(=N)N)NC(=O)[C@H](C)NC(=O)[C@H](C)NC(=O)[C@H](CCCCNC(=O)COCCOCCNC(=O)COCCOCCNC(=O)CC[C@H](NC(=O)CCCCCCCCCCCCCCCCC(=O)O)C(=O)O)NC(=O)[C@H](CO)NC(=O)[C@H](CC(=O)O)NC(=O)[C@H](CC(C)C)NC(=O)[C@](C)(Cc1ccccc1)NC(=O)[C@H](CCCCN)NC(=O)[C@H](CO)NC(=O)[C@@H](NC(=O)[C@H](CC(=O)O)NC(=O)[C@H](CO)NC(=O)[C@@H](NC(=O)[C@](C)(Cc1ccccc1)NC(=O)[C@H](CO)NC(=O)CNC(=O)[C@H](Cc1c[nH]cn1)NC(=O)C(C)(C)NC(=O)[C@@H](N)Cc1c[nH]cn1)[C@@H](C)O)C(C)C)[C@@H](C)CC)C(=O)N[C@@H](C)C(=O)N[C@@H](CC(N)=O)C(=O)N[C@H](C(N)=O)[C@@H](C)O` [Peptide 16] (H-H[Aib]HGS[αMeF]TSDVSK[αMeF]LDSK([AEEA-AEEA-γGlu-C18 diacid])AARD[αMeF]IA[Aib]IANT-NH2; N-terminus assumed): the concentration giving a half-maximal response (EC50) came to 105 pM in assay [1] (setting [3]) and 33 pM in assay [2] (setting [3]). The “% Relative Potency Ratio” value in assay [2] (Table 6) came out at 6.3.
